{
  "source": "PubChem BioAssay (NCI)",
  "experiment_in_all_cases": "NCI tumour cell line growth inhibition, 48 h",
  "key": {"[1]": {"test_system": "MOLT-4 leukemia"}, "[2]": {"test_system": "TK-10 renal"}, "[3]": {"test_system": "MDA-MB-435"}, "[4]": {"test_system": "SN12C renal"}, "[5]": {"test_system": "NCI-H23 lung"}, "[6]": {"test_system": "786-0 renal"}, "[7]": {"test_system": "HOP-92 NSCLC"}, "[8]": {"test_system": "HL-60(TB) leukemia"}, "[9]": {"test_system": "ACHN renal"}, "[10]": {"test_system": "SK-OV-3 ovarian"}, "[11]": {"test_system": "RXF 393 renal"}, "[12]": {"test_system": "UACC-62 melanoma"}, "[13]": {"test_system": "IGROV1 ovarian"}, "[14]": {"test_system": "A498 renal"}, "[15]": {"test_system": "NCI-H460 lung"}, "[16]": {"test_system": "CCRF-CEM leukemia"}, "[17]": {"test_system": "SK-MEL-28 melanoma"}, "[18]": {"test_system": "HCC-2998 colon"}, "[19]": {"test_system": "KM12 colon"}, "[20]": {"test_system": "HOP-62 NSCLC"}, "[21]": {"test_system": "OVCAR-8 ovarian"}, "[22]": {"test_system": "RPMI-8226 leukemia"}, "[23]": {"test_system": "SNB-75 CNS"}, "[24]": {"test_system": "HS 578T breast"}, "[25]": {"test_system": "LOX IMVI melanoma"}, "[26]": {"test_system": "PC-3 prostate"}, "[27]": {"test_system": "MALME-3M melanoma"}, "[28]": {"test_system": "HCT-116 colon"}, "[29]": {"test_system": "SF-295 CNS"}},
  "note": "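Following 48 hours of exposure in 96-well plates, responses at five concentrations were used to interpolate endpoints linearly. At the GI50, growth is halved. TGI is the concentration that stops growth completely.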",
  "data": [
    {"smiles": "Cn1cc(C2=C(c3cn(C)c4cc(C(=O)O)ccc34)C(=O)NC2=O)c2ccccc21", "values": [
      {"measurement": "GI50", "setting": "[1]", "result": "> 25", "unit": "µM"},
      {"measurement": "TGI", "setting": "[1]", "result": "> 25", "unit": "µM"},
      {"measurement": "GI50", "setting": "[2]", "result": "> 25", "unit": "µM"},
      {"measurement": "TGI", "setting": "[2]", "result": "> 25", "unit": "µM"},
      {"measurement": "GI50", "setting": "[3]", "result": "> 25", "unit": "µM"},
      {"measurement": "TGI", "setting": "[3]", "result": "> 25", "unit": "µM"},
      {"measurement": "GI50", "setting": "[4]", "result": "> 25", "unit": "µM"},
      {"measurement": "TGI", "setting": "[4]", "result": "> 25", "unit": "µM"},
      {"measurement": "GI50", "setting": "[5]", "result": "> 25", "unit": "µM"},
      {"measurement": "TGI", "setting": "[5]", "result": "> 25", "unit": "µM"},
      {"measurement": "GI50", "setting": "[6]", "result": "> 25", "unit": "µM"},
      {"measurement": "TGI", "setting": "[6]", "result": "> 25", "unit": "µM"},
      {"measurement": "GI50", "setting": "[7]", "result": "> 25", "unit": "µM"},
      {"measurement": "TGI", "setting": "[7]", "result": "> 25", "unit": "µM"},
      {"measurement": "GI50", "setting": "[8]", "result": "> 25", "unit": "µM"},
      {"measurement": "TGI", "setting": "[8]", "result": "> 25", "unit": "µM"},
      {"measurement": "GI50", "setting": "[9]", "result": "> 25", "unit": "µM"},
      {"measurement": "TGI", "setting": "[9]", "result": "> 25", "unit": "µM"},
      {"measurement": "GI50", "setting": "[10]", "result": "> 25", "unit": "µM"},
      {"measurement": "TGI", "setting": "[10]", "result": "> 25", "unit": "µM"},
      {"measurement": "GI50", "setting": "[11]", "result": "> 19.8", "unit": "µM"},
      {"measurement": "TGI", "setting": "[11]", "result": "> 25", "unit": "µM"},
      {"measurement": "GI50", "setting": "[12]", "result": "> 25", "unit": "µM"},
      {"measurement": "TGI", "setting": "[12]", "result": "> 25", "unit": "µM"},
      {"measurement": "GI50", "setting": "[13]", "result": "> 25", "unit": "µM"},
      {"measurement": "TGI", "setting": "[13]", "result": "> 25", "unit": "µM"},
      {"measurement": "GI50", "setting": "[14]", "result": "> 12", "unit": "µM"},
      {"measurement": "TGI", "setting": "[14]", "result": "> 25", "unit": "µM"},
      {"measurement": "GI50", "setting": "[15]", "result": "> 25", "unit": "µM"},
      {"measurement": "TGI", "setting": "[15]", "result": "> 25", "unit": "µM"},
      {"measurement": "GI50", "setting": "[16]", "result": "> 20.4", "unit": "µM"},
      {"measurement": "TGI", "setting": "[16]", "result": "> 25", "unit": "µM"},
      {"measurement": "GI50", "setting": "[17]", "result": "> 25", "unit": "µM"},
      {"measurement": "TGI", "setting": "[17]", "result": "> 25", "unit": "µM"},
      {"measurement": "GI50", "setting": "[18]", "result": "> 25", "unit": "µM"},
      {"measurement": "TGI", "setting": "[18]", "result": "> 25", "unit": "µM"},
      {"measurement": "GI50", "setting": "[19]", "result": "> 25", "unit": "µM"},
      {"measurement": "TGI", "setting": "[19]", "result": "> 25", "unit": "µM"},
      {"measurement": "GI50", "setting": "[20]", "result": "> 25", "unit": "µM"},
      {"measurement": "TGI", "setting": "[20]", "result": "> 25", "unit": "µM"},
      {"measurement": "GI50", "setting": "[21]", "result": "> 25", "unit": "µM"},
      {"measurement": "TGI", "setting": "[21]", "result": "> 25", "unit": "µM"},
      {"measurement": "GI50", "setting": "[22]", "result": "> 25", "unit": "µM"},
      {"measurement": "TGI", "setting": "[22]", "result": "> 25", "unit": "µM"},
      {"measurement": "GI50", "setting": "[23]", "result": 4.96, "unit": "µM"},
      {"measurement": "TGI", "setting": "[23]", "result": "> 25", "unit": "µM"},
      {"measurement": "GI50", "setting": "[24]", "result": 5.86, "unit": "µM"},
      {"measurement": "TGI", "setting": "[24]", "result": "> 25", "unit": "µM"},
      {"measurement": "GI50", "setting": "[25]", "result": "> 13.9", "unit": "µM"},
      {"measurement": "TGI", "setting": "[25]", "result": "> 25", "unit": "µM"},
      {"measurement": "GI50", "setting": "[26]", "result": "> 25", "unit": "µM"},
      {"measurement": "TGI", "setting": "[26]", "result": "> 25", "unit": "µM"},
      {"measurement": "GI50", "setting": "[27]", "result": "> 25", "unit": "µM"},
      {"measurement": "TGI", "setting": "[27]", "result": "> 25", "unit": "µM"},
      {"measurement": "GI50", "setting": "[28]", "result": "> 25", "unit": "µM"},
      {"measurement": "TGI", "setting": "[28]", "result": "> 25", "unit": "µM"},
      {"measurement": "GI50", "setting": "[29]", "result": "> 25", "unit": "µM"}
    ]}
  ]
}
